Assay results from US8143227B2, “Azithromycin for treatment of skin disorders” (priority 2008, dated 2012).
Converted amounts (≈) assume the structure as drawn. Like-named read-outs stand apart in the source and are kept apart here.

Tests used:
[1] = test system: acne; details: Elewski, cited from earlier work
[2] = test system: moderate to severe facial acne vulgaris; assay: Additional low dosage regimens, lesion counts; assay type: in vivo, human
Experimental: Five male subjects and five female subjects with moderate to severe facial acne vulgaris, having a mean age of 19.6 years, were treated either with 25 mg of oral azithromycin daily or with 80 mg of oral azithromycin every other day. Each of the ten subjects had acne nodules. The male subjects received the 25 mg per day regimen and the female subjects received the 80 mg every other day regimen. Treatment was continued for a duration of 6 weeks. The numbers of facial inflammatory lesions: papules, pustules, and nodules, and non-inflammatory lesions: open and closed comedones, were counted at the beginning of treatment and again after 3 weeks of treatment and after 6 weeks of treatment. Additionally, nodules were counted independently at each of these visits. Additionally, during the treatment study, each subject reported the occurrence of any adverse effects. The results of this study for the 25 mg/day regimen are shown in Table 7 and for the 80 mg every other day regiment in Table 8. In these tables, the numbers represent the mean number of lesions in the four subjects of each group. The % decrease from Day 0 was calculated as the mean of the differences for each of the parameters (inflammatory lesions, non-inflammatory lesion and nodules) for each individual subject on Day 21 and Day 42.

[3] = test system: P. acnes; details: concentration that inhibits 90% of growth of the organism; Neu 1991; cited from earlier work
[4] = test system: Staphylococcus aureus; details: Neu 1991; relative to P. acnes; cited from earlier work
[5] = test system: acne; details: 500 mg/day for 4 days in four cycles every 10 days; Gruber 1998; cited from earlier work
[6] = Azithromycin levels in sebum (Sebutape patches); assay type: in vivo, human; details: for concentration at 42 day: human, sebum, oral
Experimental: Sebum was collected from the subjects of Example 1 by use of Sebutape® (CuDerm Corporation, Dallas Tex.). On study days 0, 21, 42, and 70, each subject placed three Sebutape® adhesive patches on each of the forehead, and left and right cheeks on the skin of the face and left the patches in place for 30 to 40 minutes. The patches were then removed, folded in half with the adhesive side inward, placed in a sealed glass vial, and frozen at −20° C. to −70° C. […] Each Sebutape® patch was analyzed for quantity in nanograms of azithromycin.

[7] = Gastrointestinal side effects monitoring; assay type: in vivo, human; details: 40, 80, or 120 mg/day; 42 days treatment plus 4 weeks after cessation
From the text: The subjects of Example 1 were monitored for the presence of gastrointestinal adverse effects during the six weeks (42 days) of treatment with the daily low-dose azithromycin of the invention and for an additional 4 weeks (total of 70 days) following cessation of treatment.

[8] = test system: inflammatory acne; details: 250 mg three times per week, cited from earlier work
[9] = 25 mg/day for 6 weeks, male subjects, Day 0 (beginning of treatment)
[10] = 25 mg/day for 6 weeks, male subjects, Day 21
[11] = 25 mg/day for 6 weeks, male subjects, Day 42
[12] = 80 mg every other day for 6 weeks, female subjects, Day 0 (beginning of treatment)
[13] = 80 mg every other day for 6 weeks, female subjects, Day 21
[14] = 80 mg every other day for 6 weeks, female subjects, Day 42

CC[C@H]1OC(=O)[C@H](C)[C@@H](O[C@H]2C[C@@](C)(OC)[C@@H](O)[C@H](C)O2)[C@H](C)[C@@H](O[C@@H]2O[C@H](C)C[C@H](N(C)C)[C@H]2O)[C@](C)(O)C[C@@H](C)CN(C)[C@H](C)[C@@H](O)[C@]1(C)O [Azithromycin, 9-deoxo-9a-aza-9a-methyl-9a-homoerythromycin A]
improvement in acne ([1]; 500 mg day 1, then 250 mg/day for 4 days, from 1st and 15th of each month, 3 months): all patients treated with this azithromycin regimen showed improvement
subjects who experienced gastrointestinal side effects ([1]; same regimen): only one of twenty subjects
effectiveness in treating skin disorders such as acne in adults ([2]; 25 mg per day, daily): effective
Inflammatory lesions (mean number) [2, 9]: 37.4
Nodules (mean number) [2, 9]: 3.0
Non-inflammatory lesions (mean number) [2, 9]: 12.6
Inflammatory lesions % Decrease from Day 0 [2, 10]: 38.0%
Inflammatory lesions (mean number) [2, 10]: 22.8
Nodules % Decrease from Day 0 [2, 10]: 45.0%
Nodules (mean number) [2, 10]: 1.6
Non-inflammatory lesions % Decrease from Day 0 [2, 10]: 18.8%
Non-inflammatory lesions (mean number) [2, 10]: 10.2
Inflammatory lesions % Decrease from Day 0 [2, 11]: 41.0%
Inflammatory lesions (mean number) [2, 11]: 22.0
Nodules % Decrease from Day 0 [2, 11]: 58.3%
Nodules (mean number) [2, 11]: 1.2
Non-inflammatory lesions % Decrease from Day 0 [2, 11]: 34.3%
Non-inflammatory lesions (mean number) [2, 11]: 8.4
effectiveness in treating skin disorders such as acne ([2]; 80 mg every other day): effective
Inflammatory lesions (mean number) [2, 12]: 24.4
Nodules (mean number) [2, 12]: 3.8
Non-inflammatory lesions (mean number) [2, 12]: 48.6
Inflammatory lesions % Decrease from Day 0 [2, 13]: 34.0%
Inflammatory lesions (mean number) [2, 13]: 16.0
Nodules % Decrease from Day 0 [2, 13]: 76.0%
Nodules (mean number) [2, 13]: 1.0
Non-inflammatory lesions % Decrease from Day 0 [2, 13]: 18.5%
Non-inflammatory lesions (mean number) [2, 13]: 41.2
Inflammatory lesions % Decrease from Day 0 [2, 14]: 15.5%
Inflammatory lesions (mean number) [2, 14]: 20.4
Nodules % Decrease from Day 0 [2, 14]: 58.0%
Nodules (mean number) [2, 14]: 1.8
Non-inflammatory lesions % Decrease from Day 0 [2, 14]: 30.1%
Non-inflammatory lesions (mean number) [2, 14]: 31.6
MIC against P. acnes [3]: 0.15 µg/mL (≈ 0.2 µM)
MIC against Staphylococcus aureus [4]: higher than that for P. acnes
efficacy in the treatment of acne [5]: efficacious
gastrointestinal side effect rate [5]: about 10%
Sebum Concentration (median) ng per sample ([6]; 40 mg/day, Day 0): 0.00 ng per sample
Sebum Concentration (median) ([6]; 40 mg/day, Day 0, ng per sample divided by 1.38 mg): .00 ng/mg
Sebum Concentration (median) ([6]; 40 mg/day, Day 0, ng/mg times […]): .00 ng/µL
Sebum Concentration (median) ng per sample ([6]; 40 mg/day, Day 21): 0.00 ng per sample
Sebum Concentration (median) ([6]; 40 mg/day, Day 21, ng per sample divided by 1.38 mg): .00 ng/mg
Sebum Concentration (median) ([6]; 40 mg/day, Day 21, ng/mg times […]): .00 ng/µL
Sebum Concentration (median) ng per sample ([6]; 40 mg/day, Day 42): 0.19 ng per sample
Sebum Concentration (median) ([6]; 40 mg/day, Day 42, ng per sample divided by 1.38 mg): .14 ng/mg
Sebum Concentration (median) ([6]; 40 mg/day, Day 42, ng/mg times […]): .12 ng/µL
Sebum Concentration (median) ng per sample ([6]; 40 mg/day, Day 70 (28 days after last dose)): 0.00 ng per sample
Sebum Concentration (median) ([6]; 40 mg/day, Day 70, ng per sample divided by 1.38 mg): .00 ng/mg
Sebum Concentration (median) ([6]; 40 mg/day, Day 70, ng/mg times […]): .00 ng/µL
Sebum Concentration (median) ng per sample ([6]; 80 mg/day, Day 0): 0.00 ng per sample
Sebum Concentration (median) ([6]; 80 mg/day, Day 0, ng per sample divided by 1.38 mg): .00 ng/mg
Sebum Concentration (median) ([6]; 80 mg/day, Day 0, ng/mg times […]): .00 ng/µL
Sebum Concentration (median) ng per sample ([6]; 80 mg/day, Day 21): 0.79 ng per sample
Sebum Concentration (median) ([6]; 80 mg/day, Day 21, ng per sample divided by 1.38 mg): .57 ng/mg
Sebum Concentration (median) ([6]; 80 mg/day, Day 21, ng/mg times […]): .50 ng/µL
Sebum Concentration (median) ng per sample ([6]; 80 mg/day, Day 42): 0.84 ng per sample
Sebum Concentration (median) ([6]; 80 mg/day, Day 42, ng per sample divided by 1.38 mg): .61 ng/mg
Sebum Concentration (median) ([6]; 80 mg/day, Day 42, ng/mg times […]): .53 ng/µL
Sebum Concentration (median) ng per sample ([6]; 80 mg/day, Day 70 (28 days after last dose)): 0.00 ng per sample
Sebum Concentration (median) ([6]; 80 mg/day, Day 70, ng per sample divided by 1.38 mg): .00 ng/mg
Sebum Concentration (median) ([6]; 80 mg/day, Day 70, ng/mg times […]): .00 ng/µL
Sebum Concentration (median) ng per sample ([6]; 120 mg/day, Day 0): 0.00 ng per sample
Sebum Concentration (median) ([6]; 120 mg/day, Day 0, ng per sample divided by 1.38 mg): .00 ng/mg
Sebum Concentration (median) ([6]; 120 mg/day, Day 0, ng/mg times […]): .00 ng/µL
Sebum Concentration (median) ng per sample ([6]; 120 mg/day, Day 21): 0.76 ng per sample
Sebum Concentration (median) ([6]; 120 mg/day, Day 21, ng per sample divided by 1.38 mg): .55 ng/mg
Sebum Concentration (median) ([6]; 120 mg/day, Day 21, ng/mg times […]): .48 ng/µL
Sebum Concentration (median) ng per sample ([6]; 120 mg/day, Day 42): 0.88 ng per sample
Sebum Concentration (median) ng per sample ([6]; 120 mg/day, Day 42, listed as azithromycin): about 0.88 ng per sample
Sebum Concentration (median) ([6]; 120 mg/day, Day 42, ng per sample divided by 1.38 mg): .64 ng/mg
Sebum Concentration (median) ([6]; 120 mg/day, Day 42, ng/mg times […]): .55 ng/µL
Sebum Concentration (median) ng per sample ([6]; 120 mg/day, Day 70 (28 days after last dose)): 0.00 ng per sample
Sebum Concentration (median) ([6]; 120 mg/day, Day 70, ng per sample divided by 1.38 mg): .00 ng/mg
Sebum Concentration (median) ([6]; 120 mg/day, Day 70, ng/mg times […]): .00 ng/µL
concentration at 42 day ([6]; 120 mg/day, Day 42, ng per sample divided by 1.38 mg, read-out: Sebum Concentration (median) ng/mg): ~640 ng/g
concentration at 42 day ([6]; 120 mg/day, Day 42, ng/mg times 0.87 mg/μl, read-out: Sebum Concentration (median)): ~550 ng/mL
gastrointestinal side effects [7]: no gastrointestinal side effects were reported
cases of gastrointestinal discomfort ([8]; 21 subjects): 3 cases
cases of vaginitis ([8]; 21 subjects): one
subjects who experienced side effects ([8]; 21 subjects): 19%
efficacy in treating lesions of inflammatory acne ([8]; Fernandez-Obregon 2000): as effective as other antibiotics tested
